# Assay results reported in patent US20170354655A1, “TLR INHIBITOR AND BRUTON'S TYROSINE KINASE INHIBITOR COMBINATIONS” (Pharmacyclics LLC, priority 2014, published 2017).
# Experiments:
# Format in all cases: cell-based
# [1] = test system: TMD8 cells; assay: Combined drug treatment, CellTiter-Glo cell viability assay in TMD8 cell line; conditions: for luminescent signal (CellTiter-Glo): test ODN 1 μM or chloroquine 10 μM, 3 days; for average CI value for the ibrutinib and chloroquine combination: CalcuSyn; for synergy score for the ibrutinib and chloroquine combination: Chalice Analyzer
# Experimental: 200 μl of TMD8 wt cells (1.0×10^4 cells) at 5.0×10^4 cells/ml was plated into each well of a 96-well plate. The cells were grown in RPMI-10P medium.
# The TLR9 antagonists used for this experiment included ODN 4084-F, ODN INH-1, ODN INH-18, and ODN TTAGGG. […] The TLR9 agonists used for this experiment included ODN 2006, ODN 2216, and ODN 2395. The TLR9 agonists were used to stimulate TLR signaling. Chloroquine is a non-specific TLR antagonist.
# The stock solutions for the TLR9 antagonists and the TLR9 agonists were each prepared at 500 μM concentration. The stock solution for chloroquine diphosphate was prepared at 50 mM concentration.
# The 96-W plate was then incubated for 3 days. Cell viability was examined using a CellTiter-Glo® assay.
# (§1) A 40 μL aliquot of CellTiter-Glo® reagent was added directly into each well of the 96-W plate. The plate was then shaken on a Shaker (Labsystem Wellmix) at speed 5 for 10-20 min at room temperature. Next, about 100 μL of the mixed medium was transferred to a white, non-transparent, flat bottom 96-W plate for assaying. A Flexstation 3 luminometer was used for detecting and measuring the luminescent signals. Measurements were taken at room temperature.
# CellTiter-Glo® reagents were thawed prior to use. Cells pre-plated onto a second 96-W plate and incubated at room temperature for 30 minutes were used for calibration purposes.
# The luminescent measurements were subsequently processed and analyzed using CalcuSyn (CI) and Chalice Analyzer (synergy score). CalcuSyn performs the multiple drug dose-effect calculations using the Median Effect methods described by T-C Chou and P. Talalay in “Analysis of combined drug effects: a new look at a very old problem,” Trends Pharmacol. Sci. 4:450-454 (1983). In general, the resulting combination index (CI) obtained from the Chou-Talalay method defines quantitatively for additive effect (CI=1), synergism (CI<1), and antagonism (CI>1) in drug combinations. […] Biotechnol. 27(7):659-666 (2009).
# (§2) Cell growth effects were determined by the CellTiter-Glo® luminescent cell viability assay (Promega). The combination index (C.I.), a drug interactivity measurement was calculated with Calcusyn. Synergy scores were calculated by the Chalice Analyzer (Horizon CombinatoRx). ApoDETECT Annexin V-FITC Kit was used to detect apoptotic cell population. LC3B antibody (Cell Signaling) was used for Western blot analysis to detect autophagic marker LC3B-II. HBL-1 cells were plated in MethoCult (StemCell Technologies) and number of colonies was counted 7 days after drug treatment to determine the effect on colony formation. TLR related gene expression was determined by using RT^2 Profiler PCR Array (Qiagen).
# [2] = test system: HBL1 cells; assay: Combined drug treatment, CellTiter-Glo cell viability assay in HBL1 cell line
# Experimental: as §1
# (§3) The luminescent measurements were subsequently processed and analyzed using CalcuSyn (CI) and Chalice Analyzer (synergy score). […] In general, the resulting combination index (CI) obtained from the Chou-Talalay method defines quantitatively for additive effect (CI=1), synergism (CI<1), and antagonism (CI>1) in drug combinations. […] Biotechnol.
# as §2
# [3] = test system: OCI-LY10 cells; assay: Combined drug treatment, CellTiter-Glo cell viability assay in OCI-LY10 cell line; conditions: for synergy score for the chloroquine/ibrutinib combination: LY10 cells
# Experimental: as §1, §3, §2
smiles,measurement,setting,value
"CCN(CC)CCCC(C)Nc1ccnc2cc(Cl)ccc12 (stereo not shown) [Chloroquine, chloroquine]",luminescent signal (CellTiter-Glo),"[1]; Control (no TLR9 agonist), ibrutinib 0 nM",275515
same,luminescent signal (CellTiter-Glo),"[1]; Control (no TLR9 agonist), ibrutinib 0.0003 nM",264724
same,luminescent signal (CellTiter-Glo),"[1]; Control (no TLR9 agonist), ibrutinib 0.0013 nM",265058
same,luminescent signal (CellTiter-Glo),"[1]; Control (no TLR9 agonist), ibrutinib 0.0064 nM",271348
same,luminescent signal (CellTiter-Glo),"[1]; Control (no TLR9 agonist), ibrutinib 0.032 nM",276679
same,luminescent signal (CellTiter-Glo),"[1]; Control (no TLR9 agonist), ibrutinib 0.16 nM",250469
same,luminescent signal (CellTiter-Glo),"[1]; Control (no TLR9 agonist), ibrutinib 0.8 nM",177291
same,luminescent signal (CellTiter-Glo),"[1]; Control (no TLR9 agonist), ibrutinib 4 nM",86168
same,luminescent signal (CellTiter-Glo),"[1]; Control (no TLR9 agonist), ibrutinib 20 nM",78916
same,luminescent signal (CellTiter-Glo),"[1]; Control (no TLR9 agonist), ibrutinib 100 nM",61700
same,luminescent signal (CellTiter-Glo),"[1]; TLR9 agonist ODN 2006 1 μM, ibrutinib 0 nM",275829
same,luminescent signal (CellTiter-Glo),"[1]; TLR9 agonist ODN 2006 1 μM, ibrutinib 0.0003 nM",258871
same,luminescent signal (CellTiter-Glo),"[1]; TLR9 agonist ODN 2006 1 μM, ibrutinib 0.0013 nM",250534
same,luminescent signal (CellTiter-Glo),"[1]; TLR9 agonist ODN 2006 1 μM, ibrutinib 0.0064 nM",249082
same,luminescent signal (CellTiter-Glo),"[1]; TLR9 agonist ODN 2006 1 μM, ibrutinib 0.032 nM",239360
same,luminescent signal (CellTiter-Glo),"[1]; TLR9 agonist ODN 2006 1 μM, ibrutinib 0.16 nM",247058
same,luminescent signal (CellTiter-Glo),"[1]; TLR9 agonist ODN 2006 1 μM, ibrutinib 0.8 nM",138546
same,luminescent signal (CellTiter-Glo),"[1]; TLR9 agonist ODN 2006 1 μM, ibrutinib 4 nM",79843
same,luminescent signal (CellTiter-Glo),"[1]; TLR9 agonist ODN 2006 1 μM, ibrutinib 20 nM",67694
same,luminescent signal (CellTiter-Glo),"[1]; TLR9 agonist ODN 2006 1 μM, ibrutinib 100 nM",62288
same,luminescent signal (CellTiter-Glo),"[1]; TLR9 agonist ODN 2216 1 μM, ibrutinib 0 nM",203015
same,luminescent signal (CellTiter-Glo),"[1]; TLR9 agonist ODN 2216 1 μM, ibrutinib 0.0003 nM",193567
same,luminescent signal (CellTiter-Glo),"[1]; TLR9 agonist ODN 2216 1 μM, ibrutinib 0.0013 nM",229545
same,luminescent signal (CellTiter-Glo),"[1]; TLR9 agonist ODN 2216 1 μM, ibrutinib 0.0064 nM",200219
same,luminescent signal (CellTiter-Glo),"[1]; TLR9 agonist ODN 2216 1 μM, ibrutinib 0.032 nM",199458
same,luminescent signal (CellTiter-Glo),"[1]; TLR9 agonist ODN 2216 1 μM, ibrutinib 0.16 nM",207276
same,luminescent signal (CellTiter-Glo),"[1]; TLR9 agonist ODN 2216 1 μM, ibrutinib 0.8 nM",115898
same,luminescent signal (CellTiter-Glo),"[1]; TLR9 agonist ODN 2216 1 μM, ibrutinib 4 nM",65959
same,luminescent signal (CellTiter-Glo),"[1]; TLR9 agonist ODN 2216 1 μM, ibrutinib 20 nM",48838
same,luminescent signal (CellTiter-Glo),"[1]; TLR9 agonist ODN 2216 1 μM, ibrutinib 100 nM",44662
same,luminescent signal (CellTiter-Glo),"[1]; TLR9 agonist ODN 2395 1 μM, ibrutinib 0 nM",170080
same,luminescent signal (CellTiter-Glo),"[1]; TLR9 agonist ODN 2395 1 μM, ibrutinib 0.0003 nM",168027
same,luminescent signal (CellTiter-Glo),"[1]; TLR9 agonist ODN 2395 1 μM, ibrutinib 0.0013 nM",177301
same,luminescent signal (CellTiter-Glo),"[1]; TLR9 agonist ODN 2395 1 μM, ibrutinib 0.0064 nM",170957
same,luminescent signal (CellTiter-Glo),"[1]; TLR9 agonist ODN 2395 1 μM, ibrutinib 0.032 nM",167073
same,luminescent signal (CellTiter-Glo),"[1]; TLR9 agonist ODN 2395 1 μM, ibrutinib 0.16 nM",156507
same,luminescent signal (CellTiter-Glo),"[1]; TLR9 agonist ODN 2395 1 μM, ibrutinib 0.8 nM",100658
same,luminescent signal (CellTiter-Glo),"[1]; TLR9 agonist ODN 2395 1 μM, ibrutinib 4 nM",69482
same,luminescent signal (CellTiter-Glo),"[1]; TLR9 agonist ODN 2395 1 μM, ibrutinib 20 nM",59032
same,luminescent signal (CellTiter-Glo),"[1]; TLR9 agonist ODN 2395 1 μM, ibrutinib 100 nM",55950
same,synergy with ibrutinib (in words),"[1]; TMD8 cells, whether or not TLR agonist was present",Synergy was observed
same,average CI value for the ibrutinib and chloroquine combination,"[1]; TMD8 cells, with agonists",0.11
same,synergy score for the ibrutinib and chloroquine combination,"[1]; TMD8 cells, with agonists",4.22
same,average CI value for the ibrutinib and chloroquine combination,"[1]; TMD8 cells, without agonists",0.40
same,synergy score for the ibrutinib and chloroquine combination,"[1]; TMD8 cells, without agonists",3.48
same,synergy with ibrutinib (in words),[2],Synergy was observed
same,CI value for the chloroquine/ibrutinib combination,[2]; with agonist ODN2216,0.35
same,synergy score for the chloroquine/ibrutinib combination,[2]; with agonist ODN2216,3.5
same,CI value for the chloroquine/ibrutinib combination,[2]; without agonist ODN2216,0.56
same,synergy score for the chloroquine/ibrutinib combination,[2]; without agonist ODN2216,3.03
same,CI value for the chloroquine/ibrutinib combination,"[3]; LY10, with agonist ODN2216",0.59
same,CI value for the chloroquine/ibrutinib combination,"[3]; LY10, without agonist ODN2216",0.50
same,synergy score for the chloroquine/ibrutinib combination,[3]; with agonist ODN2216,2.63
same,synergy score for the chloroquine/ibrutinib combination,[3]; without agonist ODN2216,2.44
same,synergy with ibrutinib (in words),[3]; OCI-LY10 cells,Synergy was observed
